One may read the AC50 as the midpoint of the concentration-response curve, whichever way the signal moves.

The experiment concerns the target T1, human PAH with the R408W mutation (A375 R408W cells) (Homo sapiens, UniProt P00439, R408W).
T1 construct: expressed in transfected cells
T1 sequence (P00439 1-452 R408W): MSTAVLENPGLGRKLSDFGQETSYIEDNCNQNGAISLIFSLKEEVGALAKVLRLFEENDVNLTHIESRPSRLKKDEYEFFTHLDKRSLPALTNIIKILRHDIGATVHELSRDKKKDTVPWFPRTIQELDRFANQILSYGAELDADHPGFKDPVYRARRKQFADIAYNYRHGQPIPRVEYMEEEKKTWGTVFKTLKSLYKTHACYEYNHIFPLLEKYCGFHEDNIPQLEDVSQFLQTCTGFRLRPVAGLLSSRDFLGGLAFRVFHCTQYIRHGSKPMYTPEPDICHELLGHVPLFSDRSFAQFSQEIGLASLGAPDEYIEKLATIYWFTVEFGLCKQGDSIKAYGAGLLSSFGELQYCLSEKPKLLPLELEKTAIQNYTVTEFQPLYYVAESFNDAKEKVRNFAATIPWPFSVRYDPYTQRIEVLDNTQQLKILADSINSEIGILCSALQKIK
The experiment can be described thus: Cell Based Phenylalanine Flux Assay. The following applies: 24 hrs with compound, then 20 μM sepiapterin and 800 μM 13C9,15N-Phenylalanine for 4 hours, 13C-Tyrosine by LC-MS, average where tested multiple times. In outline: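 LC-MS quantitation of 13C-tyrosine in media gave AC50 values. Stable A375 R408W PAH cells were preincubated 24 h with compound, then fed 800 μM labelled Phe plus 20 μM sepiapterin for 4 h. Dose curves were 10-point, tested in duplicate, averaged over repeat runs.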

[1] abbreviates: A375 cells expressing R408W PAH.

With `COc1ccc2oc([C@H]3c4nc[nH]c4CCN3C(=O)c3ocnc3C(F)F)nc2c1` [Example 342, (R)-(4-(difluoromethyl)oxazol-5-yl)(4-(5-methoxybenzo[d]oxazol-2-yl)-6,7-dihydro-1H-imidazo[4,5-c]pyridin-5(4H)-yl)methanone], for the setting “A375 R408W cells”, the AC50 was 500 to 1000 nM. On the same count and under the same terms, next, `Cc1cccc2nc([C@H]3c4nc[nH]c4CCN3C(=O)c3nnc(-c4cnn(C)c4)o3)oc12` [Example 566, (R)-(5-(1-methyl-1H-pyrazol-4-yl)-1,3,4-oxadiazol-2-yl)(4-(7-methylbenzo[d]oxazol-2-yl)-6,7-dihydro-1H-imidazo[4,5-c]pyridin-5(4H)-yl)methanone]: 1000 to 5000 nM.

As to `COc1ccc(-c2nnc(C(=O)N3CCc4[nH]cnc4[C@H]3c3nc4cc(F)ccc4o3)o2)nc1` [Example 442, (S)-(4-(5-fluorobenzo[d]oxazol-2-yl)-6,7-dihydro-1H-imidazo[4,5-c]pyridin-5(4H)-yl)(5-(5-methoxypyridin-2-yl)-1,3,4-oxadiazol-2-yl)methanone], the AC50 (A375 R408W cells) fell in the range of 500 to 1000 nM. `CN(C)CCOc1ccc2c(C(=O)N3CCc4[nH]cnc4C3c3nc4cc(F)ccc4o3)cnn2c1` (stereo not drawn): under setting [1], the AC50 is no less than 5000 nM. The same measure, in the same setting: next, `CC(C)(O)c1noc(C(=O)N2CCc3[nH]cnc3C2c2nc3cccc(F)c3o2)n1` (stereo not drawn): 1000 to 5000 nM. Same read-out and setting: next, `O=C(c1cnn2cc(CCN3CCOCC3)ccc12)N1CCc2[nH]cnc2C1c1nc2cc(F)ccc2o1` (stereo not drawn): no less than 5000 nM; `Cn1nc(C(C)(C)C)nc1C(=O)N1CCc2[nH]cnc2C1c1nc2ccccc2o1` (stereo not drawn): 1000 to 5000 nM.

With `CC(C)(O)c1nc(C(F)F)c(C(=O)N2CC(C)(C)c3[nH]cnc3C2c2nc3cc(F)ccc3o2)o1` (stereo not drawn), the AC50 under setting [1] was no less than 5000 nM. As to `Cc1nc(C(C)O)oc1C(=O)N1CCc2[nH]cnc2C1c1nc2c(F)cccc2o1` (stereo not drawn), the AC50 under setting [1] was no less than 5000 nM.

For the molecule `Cc1ccc2oc([C@@H]3c4nc[nH]c4CCN3C(=O)c3oc(-c4cn(C)cn4)nc3C(F)F)nc2c1` [Example 784, (S)-(4-(difluoromethyl)-2-(1-methyl-1H-imidazol-4-yl)oxazol-5-yl)(4-(5-methylbenzo[d]oxazol-2-yl)-6,7-dihydro-1H-imidazo[4,5-c]pyridin-5(4H)-yl)methanone], the AC50 (A375 R408W cells) was no more than 500 nM. As for `Cn1cnc(-c2nc(C(F)F)c(C(=O)N3CCc4[nH]cnc4[C@@H]3c3nc4cccc(F)c4o3)o2)c1` [Example 891, (R)-(4-(difluoromethyl)-2-(1-methyl-1H-imidazol-4-yl)oxazol-5-yl)(4-(7-fluorobenzo[d]oxazol-2-yl)-1,4,6,7-tetrahydro-5H-imidazo[4,5-c]pyridin-5-yl)methanone], the AC50 (A375 R408W cells) is 1000 to 5000 nM. On the same count and under the same terms, next, `O=C(c1oc(-c2ccccn2)nc1C(F)F)N1CCc2[nH]cnc2[C@@H]1c1nc2cc(F)ccc2o1` [Example 86, (R)-(4-(difluoromethyl)-2-(pyridin-2-yl)oxazol-5-yl)(4-(5-fluorobenzo[d]oxazol-2-yl)-6,7-dihydro-1H-imidazo[4,5-c]pyridin-5(4H)-yl)methanone]: 1000 to 5000 nM; `O=C(c1oc(-c2ncccn2)nc1C(F)F)N1CCc2[nH]cnc2[C@@H]1c1nc2cccc(F)c2o1` [Example 668, (R)-(4-(difluoromethyl)-2-(pyrimidin-2-yl)oxazol-5-yl)(4-(7-fluorobenzo[d]oxazol-2-yl)-6,7-dihydro-1H-imidazo[4,5-c]pyridin-5(4H)-yl)methanone]: no more than 500 nM. Same read-out and setting: next, `O=C(c1oc(C2(O)CC2)nc1C(F)F)N1CCc2[nH]cnc2[C@H]1c1nc2cccc(F)c2o1` [Example 214, (S)-(4-(difluoromethyl)-2-(1-hydroxycyclopropyl)oxazol-5-yl)(4-(7-fluorobenzo[d]oxazol-2-yl)-6,7-dihydro-1H-imidazo[4,5-c]pyridin-5(4H)-yl)methanone]: no more than 500 nM; `Cn1ccc(-c2nnc(C(=O)N3CCc4[nH]cnc4[C@H]3c3nc4ccccc4o3)o2)n1` [Example 843, (S)-(4-(benzo[d]oxazol-2-yl)-6,7-dihydro-1H-imidazo[4,5-c]pyridin-5(4H)-yl)(5-(1-methyl-1H-pyrazol-3-yl)-1,3,4-oxadiazol-2-yl)methanone]: no more than 500 nM.

With `Cc1nc([C@H](C)O)oc1C(=O)N1CCc2[nH]cnc2[C@@H]1c1nc2ccc(F)cc2o1` [Example 242, ((R)-4-(6-fluorobenzo[d]oxazol-2-yl)-6,7-dihydro-1H-imidazo[4,5-c]pyridin-5(4H)-yl)(2-((S)-1-hydroxyethyl)-4-methyloxazol-5-yl)methanone], where the note is “A375 R408W cells”, the AC50 was no less than 5000 nM. Regarding `Cn1nc(Br)nc1C(=O)N1CCc2[nH]cnc2[C@@H]1c1nc2cccc(F)c2o1` [Example 474, (R)-(3-bromo-1-methyl-1H-1,2,4-triazol-5-yl)(4-(7-fluorobenzo[d]oxazol-2-yl)-6,7-dihydro-1H-imidazo[4,5-c]pyridin-5(4H)-yl)methanone], the AC50 (A375 R408W cells) was in the range of 1000 to 5000 nM. Still for that read-out and setting: the value for `Cn1cncc1-c1nc(C(F)F)c(C(=O)N2CCc3[nH]cnc3[C@H]2c2nc3cc(F)ccc3o2)o1` [Example 687, (S)-(4-(difluoromethyl)-2-(1-methyl-1H-imidazol-5-yl)oxazol-5-yl)(4-(5-fluorobenzo[d]oxazol-2-yl)-6,7-dihydro-1H-imidazo[4,5-c]pyridin-5(4H)-yl)methanone] was 500 to 1000 nM.

For `[2H][C@@]1(c2nc3cc(F)ccc3o2)c2nc[nH]c2CCN1C(=O)c1oc(C(C)(C)O)nc1C(F)F` [Example 905], the AC50 (A375 R408W cells) was no more than 500 nM. The same measure, in the same setting: next, `Cc1cccc2nc([C@@H]3c4nc[nH]c4CCN3C(=O)c3cnco3)oc12` [Example 611, (S)-(4-(7-methylbenzo[d]oxazol-2-yl)-6,7-dihydro-1H-imidazo[4,5-c]pyridin-5(4H)-yl)(oxazol-5-yl)methanone]: 500 to 1000 nM; `C[C@H](O)c1nc(C(F)F)c(C(=O)N2CCc3[nH]cnc3[C@H]2c2nc3cc(F)ccc3o2)o1` [Example 157, (4-(difluoromethyl)-2-((S)-1-hydroxyethyl)oxazol-5-yl)((S)-4-(5-fluorobenzo[d]oxazol-2-yl)-6,7-dihydro-1H-imidazo[4,5-c]pyridin-5(4H)-yl)methanone]: 500 to 1000 nM. The same measure, in the same setting: the value for `Cc1ccc2oc([C@@H]3c4nc[nH]c4CCN3C(=O)c3nnc(-c4cnn(C(F)F)c4)o3)nc2c1` [Example 673, (S)-(5-(1-(difluoromethyl)-1H-pyrazol-4-yl)-1,3,4-oxadiazol-2-yl)(4-(5-methylbenzo[d]oxazol-2-yl)-6,7-dihydro-1H-imidazo[4,5-c]pyridin-5(4H)-yl)methanone] was no more than 500 nM; that for `COc1cccc2oc([C@H]3c4nc[nH]c4CCN3C(=O)c3oc(C(C)(C)O)nc3C(F)F)nc12` [Example 428, (R)-(4-(difluoromethyl)-2-(2-hydroxypropan-2-yl)oxazol-5-yl)(4-(4-methoxybenzo[d]oxazol-2-yl)-6,7-dihydro-1H-imidazo[4,5-c]pyridin-5(4H)-yl)methanone] was 1000 to 5000 nM.

Take `Cn1cc(-c2nnc(C(=O)N3CCc4[nH]cnc4[C@@H]3c3nc4c(F)cccc4o3)o2)cn1` [Example 198, (R)-(4-(4-fluorobenzo[d]oxazol-2-yl)-6,7-dihydro-1H-imidazo[4,5-c]pyridin-5(4H)-yl)(5-(1-methyl-1H-pyrazol-4-yl)-1,3,4-oxadiazol-2-yl)methanone]: the AC50 (A375 R408W cells) lay in the range of 1000 to 5000 nM.
